According to PubChem BioAssay (NCI):
Several values for one entry are separate records, joined by “and”; a condition that tells them apart may be missing. Equal entries are not always repeated.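 Cells were grown in 96-well plates and exposed to each compound for 48 hours at five concentrations; endpoints were interpolated linearly between bracketing concentrations, or set to the highest concentration if not reached. GI50 marks 50% less growth. At the TGI there is no net growth.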

Legend:
Test in all cases: NCI-60 cell line screen, 48 h
A498 renal = test system: A498 renal
DU-145 prostate = test system: DU-145 prostate
EKVX NSCLC = test system: EKVX NSCLC
HOP-62 NSCLC = test system: HOP-62 NSCLC
NCI-H226 lung = test system: NCI-H226 lung
PC-3 prostate = test system: PC-3 prostate
SK-MEL-5 melanoma = test system: SK-MEL-5 melanoma
SK-OV-3 ovarian = test system: SK-OV-3 ovarian
UACC-62 melanoma = test system: UACC-62 melanoma
UO-31 renal = test system: UO-31 renal

Row | Structure (SMILES) | GI50 (A498 renal) | TGI (A498 renal) | GI50 (DU-145 prostate) | TGI (DU-145 prostate) | GI50 (EKVX NSCLC) | TGI (EKVX NSCLC) | GI50 (HOP-62 NSCLC) | TGI (HOP-62 NSCLC) | GI50 (NCI-H226 lung) | TGI (NCI-H226 lung) | GI50 (PC-3 prostate) | TGI (PC-3 prostate) | GI50 (SK-MEL-5 melanoma) | TGI (SK-MEL-5 melanoma) | GI50 (SK-OV-3 ovarian) | TGI (SK-OV-3 ovarian) | GI50 (UACC-62 melanoma) | TGI (UACC-62 melanoma) | GI50 (UO-31 renal) | TGI (UO-31 renal)
1 | OC(COc1cccc2ccccc12)CN1CCN(c2ccccc2)CC1 (stereo not drawn) | 13.5 µM | 26.4 µM | 17.7 µM | 31.9 µM | 15.4 µM | 32.3 µM | 13.4 µM | 26.8 µM | 14.7 µM | 29.7 µM | 12.5 µM | 29 µM | 15.9 µM | 29.9 µM | 17 µM | 32.4 µM | 14.1 µM | 28.5 µM | 5.94 µM | 20.4 µM
2 | CN(C)CCCNc1nccc(-c2c(-c3ccc(F)cc3)nn3cc(C(F)(F)F)ccc23)n1 | 6.53 µM | > 25 µM | > 16.6 µM | > 25 µM | 18.8 µM | > 25 µM | 8.53 µM | > 25 µM | 3.72 µM | 11.2 µM | 9.36 µM | > 25 µM | 3.48 µM | 6.75 µM | 20.1 µM | > 25 µM | 4.88 µM | 11.1 µM | 2.91 µM | > 25 µM
3 | CNC(C)C(=O)N[C@H](C(=O)N1CCC[C@@H]1CN(CCc1ccccc1)C(=O)C(F)(F)F)[C@H](C)OCC#CC#CCO[C@H](C)[C@H](NC(=O)[C@H](C)NC)C(=O)N1CCC[C@H]1CN(CCc1ccccc1)C(=O)C(F)(F)F (stereo partly drawn) | 1.03 µM | 2.61 µM | 1.56 µM | 3.05 µM | 1.63 µM | 3.34 µM | 0.729 µM | 2.46 µM | 1.54 µM | 3.06 µM | 1.72 µM | 3.23 µM | 1.31 µM | 2.62 µM | < 0.01 µM | < 0.01 µM | 1.77 µM | 3.24 µM | 2.14 µM | 3.98 µM
4 | CC[CH2][Sn]([Cl])([Cl])[CH2]CC | 1.54 µM | 3.62 µM | 14.5 µM | 28.6 µM | 12.3 µM | 26.4 µM | 16.6 µM | 31.3 µM | 4.02 µM | 16.5 µM | 16.2 µM | 35.9 µM | 10.6 µM | 22.6 µM | 25.7 µM | 70.8 µM | 4.19 µM | 17.5 µM | 4.47 µM | 19.5 µM
5 | CCCN(CCC)CCCNC(=O)c1cc2c(-c3ccc(OC)c(OC)c3)nn(C)c2s1 | 3.06 µM | > 100 µM | 39.1 µM | > 100 µM | 71.7 µM | > 100 µM | 37.2 µM | > 100 µM | > 100 µM | > 100 µM | 33.8 µM | > 100 µM | 15.4 µM | 29 µM | 44.3 µM | > 100 µM | 16.9 µM | 33 µM | 13.6 µM | 47 µM
6 | CNc1ccc(-c2cc(=O)oc3ccc(Cl)cc23)cc1 | 0.0811 µM and 0.0598 µM |  | 0.183 µM and 0.155 µM |  | 0.589 µM and 0.279 µM | > 100 µM | 0.0696 µM and 0.169 µM | > 100 µM | 0.719 µM and 4.05 µM | > 100 µM | 0.226 µM and 0.064 µM | > 100 µM | 0.121 µM and 0.0772 µM | 1.11 µM and 2.56 µM | 0.218 µM and 0.107 µM | > 100 µM | 0.0369 µM and 0.0431 µM | 89.7 µM | 0.417 µM and 0.501 µM | > 100 µM
7 | O=C(CCCc1ccccn1)c1ccccc1 |  | > 100 µM |  | > 100 µM |  | > 100 µM |  | > 100 µM |  | > 100 µM |  | > 100 µM |  | > 100 µM |  | > 100 µM |  | > 100 µM |  | > 100 µM
8 | C=CCN(/C=C1\C(=O)O[C@H](COC)[C@@]2(C)C1=C(O)C(=O)C1=C2[C@H](OC(C)=O)C[C@]2(C)C(=O)CC[C@@H]12)CC=C | 0.0671 µM and 0.049 µM | 2.73 µM and 1.26 µM | 11.2 µM and 1.27 µM | 20 µM and > 100 µM | 0.474 µM and 0.0779 µM | 10.4 µM and 1.67 µM |  | 20 µM and 71.3 µM | 0.364 µM and 1.16 µM |  |  | > 100 µM | 3.22 µM and 2.18 µM | 20 µM and 11.6 µM | 3.38 µM and 0.596 µM | 20 µM and 19.8 µM | 0.11 µM and 0.075 µM | 1.38 µM and 2.38 µM | 1.51 µM and 0.331 µM | 20 µM and > 100 µM
9 | CCCCN(CCCC)CCCN=c1nc2c(c(N)n1-c1ccccc1)c(=S)n(-c1ccccc1)c(=S)n2-c1ccccc1 | 1.06 µM | 2.39 µM | 1.34 µM | 2.75 µM | 0.84 µM | 2.69 µM | 1.45 µM | 3.03 µM | 1.61 µM | 3.11 µM | 0.59 µM | 1.94 µM | 1.02 µM | 2.3 µM | 1.55 µM | 3.04 µM | 0.714 µM | 2.02 µM | 0.389 µM | 1.02 µM
10 | Cc1nc(/N=C(\N)NC(=O)Nc2ccccc2Cl)sc1C | 0.249 µM | 1.1 µM | 0.621 µM | 5.85 µM | 0.626 µM | > 100 µM | 0.505 µM | 2.84 µM | 1.15 µM | 14.9 µM | 0.659 µM | > 100 µM | 0.508 µM | 7.39 µM | 0.735 µM | 5.54 µM | 0.488 µM | > 100 µM | 0.857 µM | 6.49 µM
11 | O=C(c1cccs1)c1c(C(F)(F)F)n([O-])c2ccc(F)cc2[n+]1=O | 1.95 µM | 4.08 µM | 1.15 µM | 3.12 µM | 1.69 µM | 3.7 µM | 1.58 µM | 3.13 µM | 1.76 µM | 3.39 µM | 0.961 µM | 2.33 µM | 1.22 µM | 2.51 µM | 1.85 µM | 3.59 µM | 1.41 µM | 2.81 µM | 1.3 µM | 2.58 µM
12 | CCN(CC)C(=S)SC1CCOP(=O)(N(CCCl)CCCl)N1C (stereo not drawn) |  | > 100 µM |  | > 100 µM |  | > 96.4 µM |  | > 100 µM |  | > 97.3 µM |  | > 100 µM |  | 30.8 µM |  | > 100 µM |  | 17.3 µM |  | > 96.4 µM
13 | Cc1cc(-c2nc(-c3ccc(OC(F)(F)F)cc3)no2)nn1Cc1ccnc(N2CCN(C3CC3)CC2)c1 | 0.482 µM | > 100 µM | > 59.4 µM | > 100 µM | < 0.01 µM | > 51.6 µM |  |  | 12.2 µM | > 100 µM | 3.38 µM | > 100 µM | < 0.01 µM | 2.45 µM | > 49.6 µM | > 100 µM | 4.23 µM | > 49.1 µM | 4.4 µM | > 100 µM
